Experimental data as given in article PMC3823830 (Anesthesiology, 2013).
“Also recorded” adds a separate entry of the source. Like-named read-outs stand apart in the source and are kept apart here.

Assays:
[1] = tested on: P-gp; settings: bovine brain capillary cell P-gp-mediated transport; cited from earlier work
[2] = tested on: P-gp; settings: rats; cited from earlier work
[3] = cited from earlier work
[4] = Compartmental pharmacokinetic modeling of morphine and morphine glucuronides; assay type: in vivo, human; settings: for Delay time (appearance of the metabolite in plasma): set at 0.01 h for M-3-G when not estimable; for VSS of morphine glucuronide: fixed at 0.2 × body mass (kg); for Vd / clearance: both, human, plasma, intravenous; for VC (central volume): constrained to be the same in both sessions
[5] = clinical; settings: both, human, plasma, iv, 0.1 mg/kg
[6] = tested on: healthy volunteers; assay: Pharmacokinetic-pharmacodynamic effect-site modeling of miosis; settings: for Predicted maximum biophase concentration: model-predicted
[7] = tested on: healthy volunteers; settings: morphine 0.1 mg/kg
[8] = tested on: healthy volunteers; settings: average; cyclosporine did not change this delay
[9] = tested on: P-gp; settings: humans; cited from earlier work
[10] = tested on: P-gp; settings: mouse, in vivo; cited from earlier work
[11] = tested on: human P-gp; settings: cited from earlier work
[12] = tested on: P-gp; settings: cited from earlier work
[13] = tested on: P-gp; settings: P-gp-overexpressing cells; cited from earlier work
[14] = tested on: mdr1a (murine MDR1 homologue); settings: cited from earlier work
[15] = with cyclosporine, median (range)

SMILES: COc1cc2c(cc1OC)CN(CCc1ccc(NC(=O)c3cccc4c(=O)c5cccc(OC)c5[nH]c34)cc1)CC2 [GF120918]
- Effect on basolateral to apical flux of morphine [1]: abolished
- Increase in morphine antinociception [2]: approximately 3 fold

SMILES: CN1CC[C@]23c4c5ccc(O[C@@H]6O[C@H](C(=O)O)[C@@H](O)[C@H](O)[C@H]6O)c4O[C@H]2[C@@H](O)C=C[C@H]3[C@H]1C5 [Morphine-3-glucuronide, morphine-3-glucuronide]
- Clinical effect [3]: no clinical effect
- ClE (glucuronide elimination clearance) ([4]; control, median (range)): 8.4 (5.3 to 12.4) L/h
- Fraction eliminated (percent of morphine dose eliminated as the glucuronide metabolite) ([4]; control, median (range)): approximately 40%
- Fraction eliminated (percent of morphine dose eliminated as the glucuronide metabolite) ([4]; control, median (range), […]): 40.5 (27 to 52) %
- Delay time (appearance of the metabolite in plasma) ([4]; control, median (range)): 0.010 (0.003 to 0.09) h
- CLEM-3-G (elimination clearance represented by metabolism to morphine-glucuronide) ([4]; control, CLE × percent eliminated as glucuronide, mean ± SD): 39.0 ± 14.8 L/h
- VSS of morphine glucuronide ([4]; control, mean ± SD): 15.0 ± 2.5 L
- Decrease in median glucuronide elimination clearance by cyclosporine ([4]; cyclosporine vs control): more than 10%
- ClE (glucuronide elimination clearance) [4, 15]: 7.5 (3.7 to 14.0) ^@ L/h
- Fraction eliminated (percent of morphine dose eliminated as the glucuronide metabolite) [4, 15]: approximately 40%
- Fraction eliminated (percent of morphine dose eliminated as the glucuronide metabolite) ([4]; with cyclosporine, median (range), […]): 43.4 (21 to 73) %
- Delay time (appearance of the metabolite in plasma) [4, 15]: 0.022 (0.003 to 0.13) ^& h
- CLEM-3-G (elimination clearance represented by metabolism to morphine-glucuronide) ([4]; with cyclosporine, CLE × percent eliminated as glucuronide, mean ± SD): 35.3 ± 13.4 L/h
- VSS of morphine glucuronide ([4]; with cyclosporine, mean ± SD): 15.0 ± 2.5 L
- Time of peak plasma concentration after the end of the morphine infusion (control): 0.2 h
- Plasma AUC ratio (morphine glucuronide/morphine) (control, mean ± SD): 5.0 ± 1.2
- Plasma Tmax (control, relative to start of morphine infusion, mean ± SD): 1.2 ± 0.2 h
- Delay of time to peak plasma concentration by cyclosporine (cyclosporine vs control): 0.4 h
- Plasma AUC ratio (morphine glucuronide/morphine) (with cyclosporine, mean ± SD): 5.3 ± 1.1

SMILES: CN1CC[C@]23c4c5ccc(O)c4O[C@H]2[C@@H](O[C@@H]2O[C@H](C(=O)O)[C@@H](O)[C@H](O)[C@H]2O)C=C[C@H]3[C@H]1C5 [Morphine-6-glucuronide, morphine-6-glucuronide]
- Vd [4]: 15 ± 2.5 L
- Vd ([4]; 0.1 mg/kg): 15 ± 2.5 L
- clearance ([4]; 0.1 mg/kg, CLEM-6-G (elimination clearance represented by metabolism to morphine-glucuronide), control, CLE × percent eliminated as glucuronide, mean ± SD): 138 mL/min
- clearance ([4]; 0.1 mg/kg, ClE (glucuronide elimination clearance), control, median (range)): 160 mL/min
- clearance ([4]; CLEM-6-G (elimination clearance represented by metabolism to morphine-glucuronide), with cyclosporine, CLE × percent eliminated as glucuronide, mean ± SD): 103 mL/min
- Fraction eliminated (percent of morphine dose eliminated as the glucuronide metabolite) ([4]; control, median (range), listed as Morphine-6- glucuronide): 8.1 (4.9 to 12.5) %
- Fraction eliminated (percent of morphine dose eliminated as the glucuronide metabolite) ([4]; control, median (range), listed as morphine-6-glucuronide): 8.1%
- Delay time (appearance of the metabolite in plasma) ([4]; control, median (range)): 0.11 (0.04 to 0.34) h
- Decrease in median glucuronide elimination clearance by cyclosporine ([4]; cyclosporine vs control): ~25%
- Fraction eliminated (percent of morphine dose eliminated as the glucuronide metabolite) ([4]; with cyclosporine, median (range), listed as Morphine-6- glucuronide): 7.4 (3.3 to 16.6) ^& %
- Fraction eliminated (percent of morphine dose eliminated as the glucuronide metabolite) ([4]; with cyclosporine, median (range), listed as morphine-6-glucuronide): 7.4%
- Delay time (appearance of the metabolite in plasma) [4, 15]: 0.18 (0.06 to 0.37) h
- Plasma AUC ratio (morphine glucuronide/morphine) (control, mean ± SD): 0.88 ± 0.20
- Plasma AUC ratio (morphine glucuronide/morphine) (with cyclosporine, mean ± SD): 0.85 ± 0.20
- AUC(0-inf) [5]: 0.117 ± 0.032 µg·h/mL
- Cmax [5]: 0.0249 ± 0.0052 µg/mL
- half-life [5]: 2.8 ± 1.2 h

SMILES: CN1CC[C@]23c4c5ccc(O)c4O[C@H]2[C@@H](O)C=C[C@H]3[C@H]1C5 [Morphine]
- VC (central volume) ([4]; control, mean ± SD): 21.5 ± 4.7 L
- Average peripheral volume (VP) during cyclosporine treatment less than control ([4]; cyclosporine vs control, not statistically significant): approximately 11%
- VC (central volume) ([4]; with cyclosporine, mean ± SD): 21.5 ± 4.7 L
- Predicted maximum biophase concentration ([6]; after cyclosporine): 41 ± 13 ng/mL
- Maximum calculated effect site morphine concentration ([6]; control (abstract)): 7.6 ± 2.9 ng/mL
- Predicted maximum biophase concentration ([6]; control): 27 ± 11 ng/mL
- Maximum calculated effect site morphine concentration ([6]; with cyclosporine (abstract)): 11.5 ± 3.7 ng/mL
- Analgesic effect (thermal stimulus) [7]: negligible analgesic effects
- Time of maximum miosis after the end of the morphine infusion [8]: 1.6 h

SMILES: C/C=C/C[C@@H](C)C(=O)[C@H]1C(=O)N[C@@H](C(C)C)C(=O)N(C)CC(=O)N(C)[C@@H](CC(C)C)C(=O)N[C@@H](C(C)C)C(=O)N(C)[C@@H](CC(C)C)C(=O)N[C@@H](C)C(=O)N[C@H](C)C(=O)N(C)[C@@H](CC(C)C)C(=O)N(C)[C@@H](CC(C)C)C(=O)N(C)[C@@H](C(C)C)C(=O)N1C [PSC833]
- Effect on morphine-related respiratory depression (and drowsiness) [9]: did not significantly change; also recorded: no effect

SMILES: C=C[C@H]1C[N@@]2CC[C@H]1C[C@@H]2[C@@H](O)c1ccnc2ccc(OC)cc12 [Quinidine]
- IC50 [10]: 36 µM
- IC50 [11]: 34 µM
- IC50 [12]: 3 µM

SMILES: CN(C)C(=O)C(CCN1CCC(O)(c2ccc(Cl)cc2)CC1)(c1ccccc1)c1ccccc1 [loperamide]
- Efflux ratio [13]: > 20%
- Transport ratio in mdr1-knockout mice vs control [14]: 10.4
